Source: US11697648B2, “Fused pyrimidine pyridinone compounds as JAK inhibitors” (THERAVANCE BIOPHARMA R&D IP, LLC, priority 2019, dated 2023)

Tests used:
JAK1 = JAK1 (Homo sapiens (Human), UniProt P23458); assay: Biochemical JAK1 kinase assay (LanthaScreen)
Method in brief: (§1)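 GST-JAK + GFP-STAT1 peptide, HEPES pH 7.5/MgCl2/EGTA/Brij-35 buffer; cpd preincubation 1 h RT; ATP start, 1 h RT; stop with 10 mM EDTA + 2 nM Tb-anti-pSTAT1; TR-FRET 520/495. 4-parameter IC50 → pKi (Cheng-Prusoff).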

[1] = system: IL-2 stimulated STAT5 phosphorylation in Tall-1 human T cell line (JAK3); assay: Cellular JAK3 potency assay: inhibition of IL-2 stimulated pSTAT5 in Tall-1 T cells; format: cell-based
Method in brief: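 Tall-1 cells, 45,000 per well, preincubated 1 hour with compound at 37 °C, then stimulated 30 minutes with IL-2 at 300 ng/ml final. pSTAT5 (Tyr694/699) in lysates quantified by AlphaLISA SureFire Ultra. pIC50 derived from inhibition curves, given as mean with SD.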

Tyk2 = Tyk2 (Homo sapiens (Human), UniProt P29597); assay: Biochemical Tyk2 kinase assay (LanthaScreen)
Tyk2, sequence (P29597 whole entry): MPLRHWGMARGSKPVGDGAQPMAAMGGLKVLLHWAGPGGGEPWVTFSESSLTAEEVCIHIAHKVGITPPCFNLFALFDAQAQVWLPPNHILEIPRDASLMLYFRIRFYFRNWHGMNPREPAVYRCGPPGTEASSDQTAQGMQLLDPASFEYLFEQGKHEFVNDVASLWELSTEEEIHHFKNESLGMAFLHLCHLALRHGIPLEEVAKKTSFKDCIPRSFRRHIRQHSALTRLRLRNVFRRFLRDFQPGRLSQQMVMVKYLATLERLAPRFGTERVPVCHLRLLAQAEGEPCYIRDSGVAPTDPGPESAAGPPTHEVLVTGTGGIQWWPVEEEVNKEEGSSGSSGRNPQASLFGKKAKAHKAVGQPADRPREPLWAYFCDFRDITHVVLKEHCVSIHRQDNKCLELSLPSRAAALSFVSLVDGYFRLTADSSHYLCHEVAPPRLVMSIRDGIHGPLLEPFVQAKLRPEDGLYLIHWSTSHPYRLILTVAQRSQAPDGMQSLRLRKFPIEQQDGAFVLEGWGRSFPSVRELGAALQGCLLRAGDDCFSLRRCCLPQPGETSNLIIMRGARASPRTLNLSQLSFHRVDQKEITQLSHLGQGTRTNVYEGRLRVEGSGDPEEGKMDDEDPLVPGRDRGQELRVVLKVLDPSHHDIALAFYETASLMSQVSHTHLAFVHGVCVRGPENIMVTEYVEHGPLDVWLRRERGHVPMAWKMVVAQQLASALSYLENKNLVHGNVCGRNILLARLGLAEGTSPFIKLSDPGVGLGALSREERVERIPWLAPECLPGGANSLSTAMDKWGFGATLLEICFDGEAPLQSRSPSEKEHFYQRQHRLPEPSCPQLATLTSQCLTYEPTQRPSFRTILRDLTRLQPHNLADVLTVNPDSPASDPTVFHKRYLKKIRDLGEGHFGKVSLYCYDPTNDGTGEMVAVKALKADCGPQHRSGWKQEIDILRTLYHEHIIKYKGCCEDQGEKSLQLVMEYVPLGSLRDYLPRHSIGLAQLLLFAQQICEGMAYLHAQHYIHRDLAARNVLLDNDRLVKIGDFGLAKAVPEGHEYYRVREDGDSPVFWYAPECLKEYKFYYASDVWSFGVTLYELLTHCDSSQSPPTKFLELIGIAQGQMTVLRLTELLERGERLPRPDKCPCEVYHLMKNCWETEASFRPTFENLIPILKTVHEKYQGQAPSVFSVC
Method in brief: as §1

JAK3 = JAK3 (Homo sapiens (Human), UniProt P52333); assay: Biochemical JAK3 kinase assay (LanthaScreen)
JAK3, sequence (P52333 whole entry): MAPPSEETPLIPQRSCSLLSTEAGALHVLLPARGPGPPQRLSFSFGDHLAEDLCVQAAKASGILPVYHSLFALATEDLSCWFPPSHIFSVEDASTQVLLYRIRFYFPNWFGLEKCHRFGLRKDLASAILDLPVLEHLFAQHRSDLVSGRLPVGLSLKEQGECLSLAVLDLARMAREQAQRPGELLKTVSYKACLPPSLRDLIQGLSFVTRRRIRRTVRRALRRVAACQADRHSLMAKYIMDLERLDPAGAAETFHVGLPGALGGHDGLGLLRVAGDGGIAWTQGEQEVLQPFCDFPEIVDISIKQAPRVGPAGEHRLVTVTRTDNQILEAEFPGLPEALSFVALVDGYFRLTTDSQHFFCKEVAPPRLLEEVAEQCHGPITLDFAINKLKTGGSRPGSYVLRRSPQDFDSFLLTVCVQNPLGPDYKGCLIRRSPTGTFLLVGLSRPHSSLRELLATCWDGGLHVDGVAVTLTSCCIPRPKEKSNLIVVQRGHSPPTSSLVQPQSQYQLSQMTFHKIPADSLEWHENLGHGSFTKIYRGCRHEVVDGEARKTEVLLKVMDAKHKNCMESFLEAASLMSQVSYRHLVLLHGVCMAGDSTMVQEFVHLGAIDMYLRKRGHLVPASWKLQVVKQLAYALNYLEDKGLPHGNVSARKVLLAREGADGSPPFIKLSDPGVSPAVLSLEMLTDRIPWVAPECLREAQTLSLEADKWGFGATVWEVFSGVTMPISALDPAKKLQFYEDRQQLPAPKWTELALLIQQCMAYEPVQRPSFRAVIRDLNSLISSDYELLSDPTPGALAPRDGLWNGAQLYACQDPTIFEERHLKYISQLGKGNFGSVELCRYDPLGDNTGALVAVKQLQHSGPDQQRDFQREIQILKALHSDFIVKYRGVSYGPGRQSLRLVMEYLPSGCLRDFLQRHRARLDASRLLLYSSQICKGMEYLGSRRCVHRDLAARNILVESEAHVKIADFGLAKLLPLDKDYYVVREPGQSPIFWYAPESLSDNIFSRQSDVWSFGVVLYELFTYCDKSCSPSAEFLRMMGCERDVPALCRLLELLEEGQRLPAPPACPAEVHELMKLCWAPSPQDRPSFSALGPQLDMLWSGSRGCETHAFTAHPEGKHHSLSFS
Method in brief: as §1

JAK2 = JAK2 (Homo sapiens (Human), UniProt O60674); assay: Biochemical JAK2 kinase assay (LanthaScreen)
JAK2, sequence (O60674 whole entry): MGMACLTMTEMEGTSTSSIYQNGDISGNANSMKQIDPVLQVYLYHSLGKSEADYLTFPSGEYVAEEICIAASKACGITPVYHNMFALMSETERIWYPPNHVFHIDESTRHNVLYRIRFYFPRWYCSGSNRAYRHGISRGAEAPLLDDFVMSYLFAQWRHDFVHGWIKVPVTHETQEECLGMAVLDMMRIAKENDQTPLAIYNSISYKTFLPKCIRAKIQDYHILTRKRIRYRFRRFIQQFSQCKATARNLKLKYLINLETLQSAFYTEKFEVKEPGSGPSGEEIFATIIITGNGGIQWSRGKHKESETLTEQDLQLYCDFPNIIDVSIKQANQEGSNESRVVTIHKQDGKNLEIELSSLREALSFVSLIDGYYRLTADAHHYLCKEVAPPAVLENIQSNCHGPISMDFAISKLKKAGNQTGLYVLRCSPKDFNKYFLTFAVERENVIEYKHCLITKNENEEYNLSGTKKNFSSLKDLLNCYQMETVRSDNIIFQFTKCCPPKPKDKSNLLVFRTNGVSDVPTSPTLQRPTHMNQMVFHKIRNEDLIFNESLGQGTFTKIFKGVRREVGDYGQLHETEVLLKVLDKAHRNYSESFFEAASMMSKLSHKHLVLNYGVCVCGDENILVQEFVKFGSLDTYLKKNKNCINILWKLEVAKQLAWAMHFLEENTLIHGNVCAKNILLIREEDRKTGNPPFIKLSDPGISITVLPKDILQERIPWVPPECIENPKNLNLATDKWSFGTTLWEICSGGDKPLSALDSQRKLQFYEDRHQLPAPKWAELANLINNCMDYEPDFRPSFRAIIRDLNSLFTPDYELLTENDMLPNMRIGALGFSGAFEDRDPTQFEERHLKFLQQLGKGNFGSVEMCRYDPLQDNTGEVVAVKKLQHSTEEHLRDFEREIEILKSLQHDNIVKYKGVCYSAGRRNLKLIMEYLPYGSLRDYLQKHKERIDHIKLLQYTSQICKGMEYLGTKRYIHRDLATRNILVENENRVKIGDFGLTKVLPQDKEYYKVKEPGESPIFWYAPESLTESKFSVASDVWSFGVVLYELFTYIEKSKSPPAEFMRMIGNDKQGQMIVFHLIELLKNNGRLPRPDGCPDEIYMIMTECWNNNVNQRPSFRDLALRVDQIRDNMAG
Method in brief: as §1

[2] = IL-2 stimulated pSTAT5, Tall-1 T cells
[3] = selectivity JAK3 over JAK1, difference of pKi

JAK1, sequence (P23458 whole entry): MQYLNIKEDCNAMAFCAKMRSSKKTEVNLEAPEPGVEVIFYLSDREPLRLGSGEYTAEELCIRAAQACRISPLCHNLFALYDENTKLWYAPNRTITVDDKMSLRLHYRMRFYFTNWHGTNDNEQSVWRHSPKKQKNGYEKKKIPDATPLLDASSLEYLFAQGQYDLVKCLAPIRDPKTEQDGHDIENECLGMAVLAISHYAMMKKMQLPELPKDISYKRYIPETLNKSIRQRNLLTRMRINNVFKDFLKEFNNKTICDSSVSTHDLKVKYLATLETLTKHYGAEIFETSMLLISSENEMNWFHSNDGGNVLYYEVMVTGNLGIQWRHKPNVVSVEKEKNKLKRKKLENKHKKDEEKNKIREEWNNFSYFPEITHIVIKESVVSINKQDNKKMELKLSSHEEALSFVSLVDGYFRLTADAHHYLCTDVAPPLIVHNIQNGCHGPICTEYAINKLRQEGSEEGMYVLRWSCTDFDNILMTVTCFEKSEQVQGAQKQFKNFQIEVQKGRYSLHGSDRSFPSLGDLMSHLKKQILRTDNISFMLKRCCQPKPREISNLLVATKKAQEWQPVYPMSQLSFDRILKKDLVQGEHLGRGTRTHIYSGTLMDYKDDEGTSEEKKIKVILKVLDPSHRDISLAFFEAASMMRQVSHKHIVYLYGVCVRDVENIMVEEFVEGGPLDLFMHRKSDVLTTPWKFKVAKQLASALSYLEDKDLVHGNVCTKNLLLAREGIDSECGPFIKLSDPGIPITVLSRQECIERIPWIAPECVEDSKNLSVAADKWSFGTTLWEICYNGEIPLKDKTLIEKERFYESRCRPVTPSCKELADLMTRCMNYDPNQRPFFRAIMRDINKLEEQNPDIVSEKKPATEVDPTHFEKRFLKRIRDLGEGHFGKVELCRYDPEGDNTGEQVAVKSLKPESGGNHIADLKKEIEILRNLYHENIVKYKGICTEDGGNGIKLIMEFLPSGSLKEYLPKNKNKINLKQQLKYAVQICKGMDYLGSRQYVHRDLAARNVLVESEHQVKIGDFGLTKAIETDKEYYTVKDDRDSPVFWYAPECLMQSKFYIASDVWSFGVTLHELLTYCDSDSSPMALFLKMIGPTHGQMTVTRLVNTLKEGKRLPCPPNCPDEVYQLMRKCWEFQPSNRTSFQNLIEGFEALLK

SMILES | JAK 1 (pKi) (JAK1) | Tall-1 (pIC50) [1, 2] | Tyk 2 (pKi) (Tyk2) | JAK 3 (pKi) (JAK3) | JAK3 (pKi)-JAK1 (pKi) (JAK3; [3]) | JAK 2 (pKi) (JAK2) | Tall-1 (pIC50) ([1]; IL-2 stimulated pSTAT5 in Tall-1 T cells) | JAK3 (pKi)-JAK1 (pKi) (JAK3; selectivity, difference of pKi values)
C=CC(=O)N1CC(CCn2c(=O)ccc3cnc(Nc4cnn(CCOCC)c4)nc32)C1 [Example 56] | E (E represents a pKi value of 7 or below (Ki of 100 nM or above)) | C (C represents a pIC50 value between 6 and 6.7 (IC50 between 1 μM and 200 nM)) | E (E represents a pKi value of 7 or below (Ki of 100 nM or above)) | B (B represents pKi value between 9 and 10 (Ki between 1 nM and 0.1 nM)) | A (A represents a value of 3 or above) | E (E represents a pKi value of 7 or below (Ki of 100 nM or above)) | – | –
C=CC(=O)N1CC(CCn2c(=O)ccc3cnc(Nc4cccc(N5CCN(S(=O)(=O)CCOC)CC5)c4)nc32)C1 [Example 122] | E (E represents a pKi value of 7 or below (Ki of 100 nM or above)) | B (B represents a pC50 value between 6.7 (included) and 7.5 (IC50 between 200 nM and 32 nM)) | E (E represents a pKi value of 7 or below (Ki of 100 nM or above)) | B (B represents pKi value between 9 and 10 (Ki between 1 nM and 0.1 nM)) | A (A represents a value of 3 or above) | E (E represents a pKi value of 7 or below (Ki of 100 nM or above)) | – | –
C=CC(=O)N1CC(CCn2c(=O)ccc3cnc(Nc4ccc(N5CCN(C(C)=O)[C@H](C)C5)cc4)nc32)C1 [Example 169] | E (E represents a pKi value of 7 or below (Ki of 100 nM or above)) | A (A represents a pIC50 value≥7.5 (IC50≤32 nM)) | E (E represents a pKi value of 7 or below (Ki of 100 nM or above)) | A (A represents a pKi value≥10 (Ki≤0.1 nM)) | A (A represents a value of 3 or above) | E (E represents a pKi value of 7 or below (Ki of 100 nM or above)) | – | –
C=CC(=O)N1CCN(CCn2c(=O)ccc3cnc(Nc4cnn(C)c4)nc32)[C@@H](CCC)C1 [Example 158] | E (E represents a pKi value of 7 or below (Ki of 100 nM or above)) | C (C represents a pIC50 value between 6 and 6.7 (IC50 between 1 μM and 200 nM)) | E (E represents a pKi value of 7 or below (Ki of 100 nM or above)) | B (B represents pKi value between 9 and 10 (Ki between 1 nM and 0.1 nM)) | A (A represents a value of 3 or above) | E (E represents a pKi value of 7 or below (Ki of 100 nM or above)) | – | –
C=CC(=O)N1CCN(CCn2c(=O)ccc3cnc(Nc4ccc(N5CCN(C)[C@@H](C)C5)nc4)nc32)[C@@H](C)C1 [Example 252] | E (E represents a pKi value of 7 or below (Ki of 100 nM or above)) | – | E (E represents a pKi value of 7 or below (Ki of 100 nM or above)) | B (B represents pKi value between 9 and 10 (Ki between 1 nM and 0.1 nM)) | – | E (E represents a pKi value of 7 or below (Ki of 100 nM or above)) | B (B represents a pC50 value between 6.7 (included) and 7.5 (IC50 between 200 nM and 32 nM)) | A (A represents a value of 3 or above)
C=CC(=O)N1CCN(CCn2c(=O)ccc3cnc(Nc4cnn(CCOCC)c4)nc32)[C@@H](C)C1 [Example 229] | E (E represents a pKi value of 7 or below (Ki of 100 nM or above)) | B (B represents a pC50 value between 6.7 (included) and 7.5 (IC50 between 200 nM and 32 nM)) | E (E represents a pKi value of 7 or below (Ki of 100 nM or above)) | B (B represents pKi value between 9 and 10 (Ki between 1 nM and 0.1 nM)) | A (A represents a value of 3 or above) | E (E represents a pKi value of 7 or below (Ki of 100 nM or above)) | – | –
C=CC(=O)N1CCN(CCn2c(=O)ccc3cnc(Nc4ccc(N5CCN(C(C)=O)CC5)c(F)c4)nc32)CC1 [Example 152] | E (E represents a pKi value of 7 or below (Ki of 100 nM or above)) | C (C represents a pIC50 value between 6 and 6.7 (IC50 between 1 μM and 200 nM)) | E (E represents a pKi value of 7 or below (Ki of 100 nM or above)) | B (B represents pKi value between 9 and 10 (Ki between 1 nM and 0.1 nM)) | A (A represents a value of 3 or above) | E (E represents a pKi value of 7 or below (Ki of 100 nM or above)) | – | –
C=CC(=O)N1CC(CCn2c(=O)ccc3cnc(Nc4ccc(N5CCN(C6CC6)CC5)cc4)nc32)C1 [Example 118] | E (E represents a pKi value of 7 or below (Ki of 100 nM or above)) | B (B represents a pC50 value between 6.7 (included) and 7.5 (IC50 between 200 nM and 32 nM)) | E (E represents a pKi value of 7 or below (Ki of 100 nM or above)) | B (B represents pKi value between 9 and 10 (Ki between 1 nM and 0.1 nM)) | A (A represents a value of 3 or above) | E (E represents a pKi value of 7 or below (Ki of 100 nM or above)) | – | –
C=CC(=O)N1CC(CCn2c(=O)ccc3cnc(Nc4cccc(C(C)N5CCN(C(C)=O)CC5)c4)nc32)C1 (stereo not drawn) [Example 216] | E (E represents a pKi value of 7 or below (Ki of 100 nM or above)) | C (C represents a pIC50 value between 6 and 6.7 (IC50 between 1 μM and 200 nM)) | E (E represents a pKi value of 7 or below (Ki of 100 nM or above)) | B (B represents pKi value between 9 and 10 (Ki between 1 nM and 0.1 nM)) | A (A represents a value of 3 or above) | E (E represents a pKi value of 7 or below (Ki of 100 nM or above)) | – | –
C[C@@H]1CN(c2ccc(Nc3ncc4ccc(=O)n(CCC5CN(C(=O)/C=C/CN(C)C)C5)c4n3)cc2)CCN1C [Example 228] | E (E represents a pKi value of 7 or below (Ki of 100 nM or above)) | C (C represents a pIC50 value between 6 and 6.7 (IC50 between 1 μM and 200 nM)) | E (E represents a pKi value of 7 or below (Ki of 100 nM or above)) | B (B represents pKi value between 9 and 10 (Ki between 1 nM and 0.1 nM)) | A (A represents a value of 3 or above) | E (E represents a pKi value of 7 or below (Ki of 100 nM or above)) | – | –
C[C@H]1CN(c2ccc(Nc3ncc4ccc(=O)n(CCC5CN(C(=O)/C=C/CN(C)C)C5)c4n3)cc2)CCN1C [Example 227] | E (E represents a pKi value of 7 or below (Ki of 100 nM or above)) | C (C represents a pIC50 value between 6 and 6.7 (IC50 between 1 μM and 200 nM)) | E (E represents a pKi value of 7 or below (Ki of 100 nM or above)) | B (B represents pKi value between 9 and 10 (Ki between 1 nM and 0.1 nM)) | A (A represents a value of 3 or above) | E (E represents a pKi value of 7 or below (Ki of 100 nM or above)) | – | –
C=CC(=O)N1CC(CCn2c(=O)ccc3cnc(Nc4cccc(N5CCCCC5)c4)nc32)C1 [Example 68] | E (E represents a pKi value of 7 or below (Ki of 100 nM or above)) | C (C represents a pIC50 value between 6 and 6.7 (IC50 between 1 μM and 200 nM)) | E (E represents a pKi value of 7 or below (Ki of 100 nM or above)) | B (B represents pKi value between 9 and 10 (Ki between 1 nM and 0.1 nM)) | A (A represents a value of 3 or above) | E (E represents a pKi value of 7 or below (Ki of 100 nM or above)) | – | –
